According to ChEMBL document CHEMBL5729087, “Pyranopyrazole and pyrazolopyridine immunomodulators for treatment of autoimmune diseases” (2022):

How the values were obtained:
Coagulation factor XII = biological target: T1, Coagulation factor XII (Homo sapiens, UniProt P00748); test: Factor XIIa (FXIIa) Inhibitory Activity: In a 96-well clear bottom plate, 80 μl of assay buffer was added to each well. Assay buffer consists of 0.5× Hank's Balanced Salt Solution (Invitrogen), buffered with 25 mM HEPES pH 7.4 (Invitrogen) and 0.5× Tris-buffered saline with Tween-20 0.05% (Santa Cruz Biotechnology). Test compounds were first dissolved in DMSO (Sigma) and then 4 μl were added to test wells containing assay buffer. Serial dilutions using an automated multi-channel pipette were used to generate a concentration range of approximately 1-100 μM. Human FXIIa (Enzyme Research Labs) was diluted in assay buffer to a final concentration of 12.5 nM. 80 μl of this enzyme solution was added to the assay wells. The enzyme/compound mixtures were incubated for 10 minutes at room temperature. Chromogenic substrate (Pefachrome XIIa; Enzyme Research Labs) was added to assay wells at a final concentration of 400 μM. The assay plate was spun for 1 minute at 1500 g and then read at 37° C. in a SpectraMax M2 plate reader (λ=405 nm). Activity was quantified as the rate of change in absorbance, which corresponds to the rate of substrate cleavage. IC50 values were determined as the concentration of inhibitor that produced 50% of the rate of change of control wells without any inhibitor. For compounds with activity <1 μM, the assay was repeated with a lower concentration range, typically from 10-1000 nM.
T1 sequence (P00748 whole entry): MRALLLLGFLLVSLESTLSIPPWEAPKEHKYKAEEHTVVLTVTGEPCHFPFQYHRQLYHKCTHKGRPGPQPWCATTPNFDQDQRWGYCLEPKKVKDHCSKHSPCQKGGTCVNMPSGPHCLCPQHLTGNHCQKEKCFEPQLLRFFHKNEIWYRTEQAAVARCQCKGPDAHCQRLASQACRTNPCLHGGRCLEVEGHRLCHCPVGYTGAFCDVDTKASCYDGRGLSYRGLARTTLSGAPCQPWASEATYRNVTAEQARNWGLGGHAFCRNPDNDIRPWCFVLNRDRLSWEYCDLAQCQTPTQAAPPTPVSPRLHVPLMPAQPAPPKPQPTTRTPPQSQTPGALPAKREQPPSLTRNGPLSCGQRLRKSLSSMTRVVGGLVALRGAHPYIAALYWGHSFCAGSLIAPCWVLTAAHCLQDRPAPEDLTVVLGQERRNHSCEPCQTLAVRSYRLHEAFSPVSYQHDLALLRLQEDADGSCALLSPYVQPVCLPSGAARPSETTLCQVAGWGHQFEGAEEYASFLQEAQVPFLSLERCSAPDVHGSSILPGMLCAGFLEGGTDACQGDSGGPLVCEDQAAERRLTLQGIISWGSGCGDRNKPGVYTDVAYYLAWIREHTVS

Prothrombin = Prothrombin (Homo sapiens, UniProt P00734); test: Counterscreens for Selectivity: Thrombin. In a 96-well white opaque plate, 80 μl of assay buffer was added to each well. Test compounds were added, and serially diluted as above, to generate a concentration range of approximately 1-100 μM. Human alpha-thrombin (Enzyme Research Labs) was diluted in assay buffer to a final concentration of 12.5 nM. 80 μl of this enzyme solution was added to the assay wells. The enzyme/compound mixtures were incubated for 10 minutes at room temperature. Fluorogenic substrate (Boc-Val-Pro-Arg-7-amido-4-methylcoumarin; Sigma) was added to assay wells at a final concentration of 20 μM. The assay plate was spun for 1 minute at 1500 g and then read at 37° C. in a SpectraMax M2 plate reader (λex=380 nm and λem=460 nm). Activity was quantified as the rate of change in fluorescence, which corresponds to the rate of substrate cleavage. IC50 values were determined as the concentration of inhibitor that produced 50% of the rate of change of control wells without any inhibitor. For compounds with activity <1 μM, the assay was repeated with a lower concentration range, typically from 10-1000 nM.

| IC50 (Coagulation factor XII) | IC50 (Prothrombin) | Compound |
| --- | --- | --- |
| 150 nM | > 150 µM | Cc1cc2c(C(=O)n3nc4c(c3N)CCNC4)cccc2[nH]1 |
| 250 nM | > 75 µM | CN(C)S(=O)(=O)N1CCc2c(nn(C(=O)C3CCNc4ccccc43)c2N)C1 (stereo not given) |
| 60000 nM |  | CC(C)N1CCc2c(N)nn(C(=O)C3CCNc4ccc(F)cc43)c2C1 (stereo not given) |
